How the values were obtained:
[1] = target: T1, human A1 adenosine receptor (hA1AR) (Homo sapiens, UniProt P30542); conditions: at 10 μM; [3H]36; CHO cells expressing hA1AR; ref Tosh et al.[9]; cited from earlier work
T1 sequence (P30542 1-326): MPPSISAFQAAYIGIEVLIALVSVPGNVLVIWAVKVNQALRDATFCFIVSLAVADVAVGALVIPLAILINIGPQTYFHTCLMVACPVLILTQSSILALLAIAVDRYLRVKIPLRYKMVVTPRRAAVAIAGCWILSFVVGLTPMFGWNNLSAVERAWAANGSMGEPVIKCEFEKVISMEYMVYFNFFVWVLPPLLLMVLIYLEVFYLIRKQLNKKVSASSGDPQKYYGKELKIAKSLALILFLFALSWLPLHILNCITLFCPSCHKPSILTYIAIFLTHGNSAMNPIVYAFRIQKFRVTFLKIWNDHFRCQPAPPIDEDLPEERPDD

[2] = target: human A2A adenosine receptor (hA2AAR) (Homo sapiens, UniProt P29274); conditions: at 10 μM; [3H]37; HEK293 cells expressing hA2AAR; ref Tosh et al.[9]; cited from earlier work
human A2A adenosine receptor (hA2AAR), sequence (P29274 whole entry): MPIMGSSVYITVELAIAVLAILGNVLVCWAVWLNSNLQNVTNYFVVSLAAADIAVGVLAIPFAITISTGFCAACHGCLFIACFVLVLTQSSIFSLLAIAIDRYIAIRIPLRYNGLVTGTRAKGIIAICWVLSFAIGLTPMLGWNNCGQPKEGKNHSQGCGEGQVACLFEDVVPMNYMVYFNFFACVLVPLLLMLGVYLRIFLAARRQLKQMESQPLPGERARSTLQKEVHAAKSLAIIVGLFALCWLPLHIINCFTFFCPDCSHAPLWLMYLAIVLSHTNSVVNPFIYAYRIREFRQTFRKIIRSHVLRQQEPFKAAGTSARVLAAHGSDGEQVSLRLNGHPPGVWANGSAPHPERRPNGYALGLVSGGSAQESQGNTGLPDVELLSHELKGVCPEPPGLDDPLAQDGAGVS

[3] = target: T2, human A3 adenosine receptor (hA3AR) (Homo sapiens, UniProt P0DMS8); assay: Radioligand binding at human A3AR; conditions: for Selectivity for hA3AR in comparison to A1 and A2AARs (in words): inhibition curves, Figure 1; for Affinity at the A3AR (in words): binding
T2 sequence (P0DMS8 1-318): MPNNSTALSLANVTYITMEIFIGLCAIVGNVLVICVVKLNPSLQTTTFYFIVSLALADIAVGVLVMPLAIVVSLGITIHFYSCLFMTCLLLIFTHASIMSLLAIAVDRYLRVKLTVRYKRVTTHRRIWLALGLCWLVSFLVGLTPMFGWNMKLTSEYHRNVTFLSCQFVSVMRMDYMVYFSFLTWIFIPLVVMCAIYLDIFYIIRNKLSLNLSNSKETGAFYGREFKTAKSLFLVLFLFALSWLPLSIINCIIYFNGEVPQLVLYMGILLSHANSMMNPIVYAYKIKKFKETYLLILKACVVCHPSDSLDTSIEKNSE

human A3AR = target: T3, human A3AR (Homo sapiens, UniProt P0DMS8); assay: Inhibition of forskolin-stimulated cAMP production in A3AR-expressing CHO cells; type: cell-based; conditions: inhibition of forskolin-stimulated cAMP at 10 μM, NECA as reference standard
T3 sequence (P0DMS8 1-318): T2 sequence (P0DMS8 1-318)

[4] = target: T1, human A1 adenosine receptor (hA1AR); assay: Radioligand binding at human A1AR; conditions: read-out: % inhibition of radioligand binding, A1

CCN1\C(=C/C=C/C=C/C2=[N+](CCCCCC(=O)NCCNC(=O)CCC#Cc3nc(NCc4cccc(Cl)c4)c4ncn([C@H]5[C@H](O)[C@H](O)[C@]6(C(=O)NC)C[C@H]56)c4n3)c3ccc(S(=O)(=O)[O-])cc3C2(C)C)C(C)(C)c2cc(S(=O)(=O)O)ccc21 [Compound 1]
% inhibition of radioligand binding, A1 [1]: (36±3%)

CNC(=O)[C@@]12C[C@@H]1[C@@H](n1cnc3c(NCc4cccc(Cl)c4)nc(C#CCCC(=O)NCCNC(=O)CCCCC4SCC5NC(=O)NC54)nc31)[C@H](O)[C@@H]2O (some centres unmarked) [Compound 2]
% inhibition of radioligand binding, A2A [2]: (51±2%)
% inhibition of radioligand binding, A1 [1]: (1±1%)

CNC(=O)[C@@]12C[C@@H]1[C@@H](n1cnc3c(NCc4cccc(Cl)c4)nc(C#CCCC(=O)NCCNC(=O)CCCCCNC(=O)CCCCC4SCC5NC(=O)NC54)nc31)[C@H](O)[C@@H]2O (some centres unmarked) [Compound 3]
% inhibition of radioligand binding, A2A [2]: (47±11%)
% inhibition of radioligand binding, A1 [1]: (12±4%)

CNC(=O)[C@@]12C[C@@H]1[C@@H](n1cnc3c(NCc4cccc(Cl)c4)nc(C#CCCCCc4cn(CCNC(C)=O)nn4)nc31)[C@H](O)[C@@H]2O [Compound 15, (1S,2R,3S,4R,5S)-6-(3-Chlorobenzylamino)-(2-(6-(1-(4-acetamidoethyl)-1H-1,2,3-triazol-4-yl)hex-1-ynyl)-9H-purin-9-yl)-2′,3′-dihydroxybicyclo[3.1.0]hexane-1′-carboxylic acid N-methylamide]
Fold more potent in A3AR binding than higher butyl homologue 17 ([3]; compared with 17): 4 fold
Selectivity for hA3AR in comparison to A1 and A2AARs (in words) [3]: highly selective
A3AR agonist efficacy (in words) (human A3AR): highly efficacious agonists

CNC(=O)[C@@]12C[C@@H]1[C@@H](n1cnc3c(NCc4cccc(Cl)c4)nc(C#CCCCCc4cn(CCCCN)nn4)nc31)[C@H](O)[C@@H]2O [Compound 16, (1S,2R,3S,4R,5S)-6-(3-Chlorobenzylamino)-(2-(6-(1-(4-aminobutyl)-1H-1,2,3-triazol-4-yl)hex-1-ynyl)-9H-purin-9-yl)-2′,3′-dihydroxybicyclo[3.1.0]hexane-1′-carboxylic acid N-methylamide]
Affinity at the A3AR (in words) [3]: only moderate affinity

CNC(=O)[C@@]12C[C@@H]1[C@@H](n1cnc3c(NCc4cccc(Cl)c4)nc(C#CCCCCc4cn(C56CC7CC(CC(C7)C5)C6)nn4)nc31)[C@H](O)[C@@H]2O [Compound 18, (1S,2R,3S,4R,5S)-6-(3-Chlorobenzylamino)-(2-(6-(1-(adamantyl)-1H-1,2,3-triazol-4-yl)hex-1-ynyl)-9H-purin-9-yl)-2′,3′-dihydroxybicyclo[3.1.0]hexane-1′-carboxylic acid N-methylamide]
Selectivity for hA3AR in comparison to A1 and A2AARs (in words) [3]: highly selective
A3AR agonist efficacy (in words) (human A3AR): partial agonist

CNC(=O)[C@@]12C[C@@H]1[C@@H](n1cnc3c(NCc4cccc(Cl)c4)nc(C#CCCCCc4cn(Cc5ccc(-n6sccc6=O)cc5)nn4)nc31)[C@H](O)[C@@H]2O [Compound 19]
Affinity at the A3AR (in words) [3]: only moderate affinity

CNC(=O)[C@@]12C[C@@H]1[C@@H](n1cnc3c(NCc4cccc(Cl)c4)nc(C#CCCCCc4cn(CCCCCCNC(=O)c5ccc(-c6c7ccc(=N)c(S(=O)(=O)O)c-7oc7c(S(=O)(=O)O)c(N)ccc67)c(C(=O)O)c5)nn4)nc31)[C@H](O)[C@@H]2O [Compound 23]
inhibition at 10 µM [4]: 0%

CNC(=O)[C@H]1O[C@@H](n2cnc3c(NCc4cccc(I)c4)ncnc32)[C@H](O)[C@@H]1O [IB-MECA, N^6-(3-iodobenzyl)-5′-N-methylcarboxamidoadenosine, reference compound]
A3AR agonist efficacy (in words) (human A3AR): full agonists

Source: PMC2818678 (Bioorganic & medicinal chemistry, 2009)
